Source: US20070026398A1, “Protein tyrosine phosphatase-prl-1 a a marker and therapeutic target for pancreatic cancer” (priority 2003, published 2007)
“And” between values parts separate entries of the source, which are not always exact repeats. Equal values may be shown once. Read-outs that look alike come from different tables or passages of the source.

Assays:
PRL-1 = target: T1, PRL-1 (Homo sapiens, UniProt Q93096); experiment: in vitro PRL-1 phosphatase enzymatic assay (tyrosine phosphatase / DiFMUP assay); type: biochemical; design: INHIBITION % (PRL-1 inhibitory activity): concentration or dose not given beside the values; details: for INHIBITION % (PRL-1 inhibitory activity): UA Natural Products Library hits; for inhibitory activity against PRL-1: Promega tyrosine phosphatase assay system, TNT-expressed His-tagged PRL-1 (FIG. 7C)
T1 sequence (Q93096 1-173): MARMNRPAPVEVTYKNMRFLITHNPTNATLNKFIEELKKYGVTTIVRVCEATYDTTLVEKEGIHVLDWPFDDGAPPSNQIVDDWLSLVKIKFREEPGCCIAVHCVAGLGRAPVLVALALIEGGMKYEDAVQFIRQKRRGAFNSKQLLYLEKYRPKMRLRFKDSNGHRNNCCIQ
Source text: Assays that measure the removal of phosphates from proteins or peptides containing phosphotyrosine may also be employed in the present invention. One method of screening for drug targets would involve measuring inhibition of PRL-1-mediated tyrosine dephosphorylation. This assay detects the amount of free […] generated in a reaction by measuring the absorbance of a molybdate:malachite green:phosphate complex. This assay detects the activity of protein tyrosine phosphatases. Such assays or systems are commercially available from suppliers such as Promega (Madison, Wis.) or Applied Biosystems (Foster City, Calif.).
Another assay employed in the present invention is an improved method for measuring protein phosphatases for high-throughput screening involving 6,8-difluoro-4-methylumbelliferyl phosphate (DiFMUP). DiFMUP can assay both acid and alkaline phosphatase activity. […] The lower pka of its hydrolysis product makes DiFMUP a sensitive substrate for acid phosphatases, which is not possible with MUP because its fluorescence must be measured at alkaline pH. Furthermore, with its high quantum yield, DiFMUP increases the sensitivity of both acid and alkaline phosphatase measurements. […] DiFMUP enables the quantitation of as little as 1.0 pg/ml alkaline phosphatase.
For example, in the present invention, a bacterial expression system may be employed (i.e., pProEx vector) from which recombinant His-tagged PRl-1 protein may be obtained and purified using a column (i.e., a nickel column). The PRl-1 enzymatic activity in the presence of a drug compound of interest and in combination with DiFMUP substrate may be incubated (about 1 h) and the dephosphorylated substrate detected.
To produce PRL-1 protein for in vitro phosphatase assays, the PRL-1 gene was cloned into an expression vector with a His tag (pcDNA™ 3.1 from Invitrogen) and the protein expressed in vitro using the TNT coupled transcription and translation kit (Promega). […] The molecular weight of this PRL-1 protein (22KDa) is exactly the same as reported in the literature. An in vitro phosphatase assay was conducted using a tyrosine phosphatase assay system (Promega) to confirm the dephosphorylation activity of the recombinant PRL-1 protein.
This assay was optimized and used to screen various compound libraries for PRL-1 inhibitors. […] Compounds identified using the DiFMUP in vitro assay to screen compounds from the Nanosyn Combichem library and the NCI database include NS19999, NS45609, NS45336, and NCI668394 respectively.
The inventors first cloned the full length open reading frame of PRL-1 to the bacteria expression vector pProEx-HTa (Invitrogen) under the control of an IPTG inducible promoter. A six-histidine tag was added to the C-terminus of PRL-1 for quick purification of PRL-1 using the Ni-NTA system. The expression vector was transformed to bacteria strain BL21 and checked for PRL-1 expression using Western blot. For large scale expression, bacteria were grown in 500 ml LB media to logarithm phase (OD600 between 0.5 to 0.9) and induced to express PRL-1 by adding IPTG to final concentration of 1 mM and incubating for 4 hours. Bacteria were harvested by centrifugation at 5,000 rpm for 5 min and resuspended in the Native Binding Buffer (50 mM NaPO4, 0.5M NaCl, pH8.0, and 10 mM imidazole) at 16 ml/100 ml culture. The bacteria cells were then lysated by adding lmg/ml lysozyme and sonication. The cell lysate was centrifuged at 3,000 g for 15 min and the supernatant were then transferred to a 10-ml column pre-packed with 1.5 ml of Ni-NTA resin (Invitrogen). The column was gently agitated for 60 min to allow the binding of the His-tagged PRL-1 to the resin. After the binding reaction, the column was washed with the Native Wash Buffer (50 mM NaPO4, 0.5M NaCl, pH 8.0, and 20 mM imidazole) for 4 times. Finally, the PRL-1 protein was eluted off the column with 10 ml of Native Elution Buffer (50 mM NaPO4, 0.5 M NaCl, pH 8.0, and 250 mM imidazole). […]

Mia PaCa-2 cells = experiment: cell proliferation assay in Mia PaCa-2 pancreatic cancer cells; type: cell-based; details: Homo sapiens
Protocol: FIGS. 13A-13C. Inhibition of cell proliferation by PRL-1 inhibitors using a SRB staining assay. FIG.13A—Inhibition of MiaPaCa-2 cell growth by UA668394. Cells were exposed to different doses of UA668394 (0.2 μM to 200 μM) for four days by SRB (Sulforhodamine B) staining. […] FIG. 13B—Inhibition of cell proliferation in pancreatic cancer cells Panc-1 and Mia PaCa-2 by the compound UA66839-1 analog. FIG. 13C—Inhibition of cell proliferation in pancreatic cancer cells Panc-l and Mia PaCa-2 by the compound UA668394-2 analog.
Cell Proliferation Assays. Cell proliferation assays with these cell lines are performed to determine the effect of target inhibition on cell growth. Cells are seeded at 2.0-5.0×10^5 cells in 100-mm culture dishes and allow to attach overnight at 37° C. Adherent cells are washed and incubated with serum-free RPMI 1640 or RPMI containing 10% FBS for 48 h, after which they are trypsinized and counted using a hemocytometer. In addition, parallel experiments are perform and instead of cell counts, the proliferative status of the cell lines is determined using flow cytometric analysis of DNA content. For flow analysis, cells are stained with propidium iodide using a modified Krishan technique (Krishan, 1975). All samples are analyze with an FACSCAN flow cytometer (Becton Dickinson) using a 15 mWatt argon ion laser operated at 6 mWatts of power at 488 nm. Photomultiplier tube voltage is adjusted for each control sample to position the G0/G1 to channel 240 on a 1024 channel presentation. Histograms are analyze for cell cycle compartments using CELLQUEST (Becton Dickinson) analysis software. Histograms having 50K events are collected to maximize the statistical validity of the compartmental analysis. The results of this flow analysis allow the examination of the cell cycle distribution of the pancreatic cancer cell lines.
UA668394 was previously identified as a PRL-1 phosphatase inhibitor (IC50=7 μM) using high throughout library screening.
Compounds identified as being positive for anti-PRL-1 activity were tested for their ability to inhibit cell proliferation in human pancreatic cancer cells. The inhibitory activity of UA668394, UA19999 and UA45336 (Table 5) were examined. Cell proliferation assays were conducted using the pancreatic cancer cell line Mia PaCa-2, as described in Example 1. Briefly, 2.0-5.0×10^5 cells were seeded in 100-mm culture dishes and allowed to attach overnight at 37° C. Adherent cells were washed and incubated with serum-free RPMI 1640 or RPMI containing 10% FBS for 48 h, and treated with the compound of interest to determine its effect on the inhibition of cell growth. For example, cells were treated with of the UA668394, UA19999 and UA45336 compounds and analyzed for inhibition of cell proliferative using a MTS assay.

[1] = PRL-1 inhibitors identified by library screening, read-out: IC50
[2] = MIA PaCa-2, MTS cell proliferation assay, read-out: IC50, inhibition of cell proliferation in Mia PaCa-2 cells

For `C=CCn1c(SCC(=O)O)nnc1-c1ccc([N+](=O)[O-])cc1` [UA58428], the “INHIBITION % (PRL-1 inhibitory activity)” value (PRL-1) was 42%.

With `COc1ccccc1C=C1C(=O)NC(=O)NC1=O` [UA12499] the IC50 (PRL-1; IC50, PRL-1 inhibitors identified by library screening) was 36.5 µM.

In the case of `O=C1C(O)=C([N+](=O)[O-])C(=O)c2ccccc21` [UA45609], the IC50 (PRL-1; [1]) is reported as 17 µM.

In the case of `[Na+].[Na+].[Na+].[O]=[V]([O-])([O-])[O-]` [sodium orthovanadate, reference compound], the “inhibitory activity against PRL-1” value (PRL-1) is reported as “some inhibitory activity”.

In the case of `Nc1cc(S(=O)(=O)C(F)(F)F)ccc1C(=O)O` [UA12882, 2-Amino-4-trifluoromethanesulfonyl-benzoic acid], the IC50 (PRL-1; [1]) is reported as 25 µM.

With `NC(=O)c1cc2ccc(O)cc2oc1=O` [UA63415] the “INHIBITION % (PRL-1 inhibitory activity)” value (PRL-1) was 62%.

For `CCC1=NN(c2ccccc2)C(=O)C(CC(=O)Nc2ccccc2)c2cc(OC)c(OC)cc21` (centres unmarked) [UA12812], the IC50 (PRL-1; [1]) was 66 µM.

`COC(=O)c1nc(O)c2ccccc2c1O` [UA45336] gave an IC50 (PRL-1; [1]) of 12.5 µM and an IC50 (Mia PaCa-2 cells; [2]) of 95 µM.

With `COc1cc(NCCC(C)=O)c2ncccc2c1` [UA292O9] the IC50 (PRL-1; [1]) was 41 µM.

`N#CC1=C(N)NC(=S)C(C(N)=O)C1c1ccccc1F` (centres unmarked) [UA64859] was tested, and the “INHIBITION % (PRL-1 inhibitory activity)” value (PRL-1) was 76%.

For `O=C1C=Cc2cc(Br)ccc2C1=O` [UA13082], the IC50 (PRL-1; [1]) was 8.7 µM.

For `C=Cc1ccc2c3c(ccc(C=O)c13)C(Cl)=CC2=O` [UA61880], the “INHIBITION % (PRL-1 inhibitory activity)” value (PRL-1) was 50%.

In the case of `C=[N+](OC)c1nn(CC(=O)Nc2sc(C)c(C)c2C(N)=O)c(C)c1Br` [UA47548], the “INHIBITION % (PRL-1 inhibitory activity)” value (PRL-1) is reported as 70%.

In the case of `O=C(O)CN(CCN(CC(=O)O)CC(=O)O)CC(=O)O` [EDTA, reference compound], the “inhibitory activity against PRL-1” value (PRL-1) is reported as “some inhibitory activity”.

For `Brc1cccc(C2=NC(c3ccccc3)=C3C=CC=CN3C2)c1` [UA21497], the IC50 (PRL-1; [1]) was 0.1 µM.

With `O=C(O)c1ccc2c(c1)C(=O)N(c1cccc3ccccc13)C2=O` [UA13464] the IC50 (PRL-1; [1]) was 72 µM.

In the case of `O=C1C=C(NCCc2cc(Br)c(O)c(Br)c2)C(=O)c2ncccc21` [UA668394], the IC50 (PRL-1; [1]) is reported as 7 µM and 7.2 µM, the IC50 (Mia PaCa-2 cells; MIA PaCa-2, 96 h, SRB staining, four days exposure, 0.2 μM to 200 μM (FIG. 13A legend), read-out: estimated IC50, inhibition of MiaPaCa-2 cell growth) is reported as 1.2 µM and the IC50 (Mia PaCa-2 cells; [2]) is reported as 1.2 µM.

Work on `CN1C(=O)C(=O)c2cc([N+](=O)[O-])ccc21` [UA19999] yielded an IC50 (PRL-1; [1]) of 33 µM and an IC50 (Mia PaCa-2 cells; [2]) of 120 µM.

In the case of `CC(=O)Oc1cc(OC(C)=O)c2c(c1)OC(=O)C(Cl)C2C` (centres unmarked) [UA14798], the IC50 (PRL-1; [1]) is reported as 64 µM.
